From US7566683B2, “Ethylene derivatives and pesticides containing said derivatives” (priority 1996, dated 2009)

Key:
[1] = tested on: Diamond Back Moth (Plutella xylostella Linné); test: Insecticidal test for diamond back moth; type: in vivo; conditions: 144 h, cabbage leaves dipped in 500 ppm aqueous emulsion, second larvae, 25° C., after 6 days
Protocol: The leaves of cabbage were dipped in a 500 ppm aqueous emulsion of a compound of the invention for about 10 seconds. After having been dried in air, the thus-treated leaves were put into laboratory dishes. Ten (10) second larvae of diamond back moth (Plutella xylostella) were released in each dish. Each dish was covered with a perforated cover, and stored in a thermostatic chamber at 25° C. […] Each compound was tested in that manner for two groups of dishes.

[2] = tested on: Brown Rice Planthopper (Nilaparvata lugens Stal); test: Insecticidal test for brown rice planthopper; type: in vivo; conditions: 144 h, 500 ppm solution applied to rice stems and leaves, second instar nymphae, after 6 days
Description: The stems and leaves of rice-plants in 1/20,000 are pot were sufficiently applied with the resulting solution. After the thus-applied chemical solution was dried in air, each pot was covered with a cylindrical cover. Ten (10) second instar nymphae of brown rice planthoppers (Nilaparvata lugens) were released in each pot. After having been thus covered, the pots were stored in a thermostatic chamber. After 6 days passed, the insects in each pot were observed, and the mortality thereof was determined according to the following equation. Each compound was tested in that manner for two groups of pots. Mortality (%)=([number of insect killed/(number of insect killed+number of living insect)]×100

[3] = tested on: Cucurbit Leaf Beetles (Aulacophora femoralis Motschulsky); test: Insecticidal test for cucurbit leaf beetles; type: in vivo; conditions: 144 h, cucumber leaves dipped in 500 ppm solution, second instar nymphae, 25° C., after 6 days
Protocol: The leaves of cucumbers were dipped in this chemical solution for about 10 seconds, dried in air, and put into a laboratory dish. Ten (10) second instar nymphae of cucurbit leaf beetles (Aulacophora femoralis) were released in each dish. Each dish was covered with a cover, and stored in a thermostatic chamber at 25° C. […] Each compound was tested in that manner for two groups of dishes.

[4] = tested on: Two-Spotted Spider Mites (Tetranychus urticae Koch); test: whole plant or invertebrate; type: in vivo; conditions: foliar, 500 ppm solution sprayed 2 ml/cup on kidney bean leaf discs, larvae, 25° C., after 96 hours
Protocol: The leaves of kidney bean plants were punched into 3 cm-diameter discs, using a leaf punch, and put onto moistured filter paper in a 7 cm-diameter styrol cup. Ten (10) larvae of two-spotted spider mites (Tetranychus urticae) were put to each leaf. […] The solution was sprayed over each cup in an amount of 2 ml/cup, using a rotary sprinkler, and the cups were stored in a thermostatic chamber at 25° C. […] Each compound was tested in that manner for two groups of cups.

[5] = tested on: Green Peach Aphids (Myzus persicae Sulzer); test: Insecticidal test for green peach aphids; type: in vivo; conditions: 144 h, 500 ppm spray (2.5 mg/cm^2) on cabbage leaf, apterous adults, larvae and adults counted after 6 days
Protocol: Moistured filter paper was placed in each laboratory glass dish having an inner diameter of 3 cm, and a leaf cabbage having the same diameter as that of the dish was put on the filter paper. Four female, apterous adults of green peach aphids (Myzus persicae) were put on the cabbage leaf. Fllowing day, a chemical sample (2.5 mg/cm^2) was sprayed over the dishes, using a rotary sprinkler. […] After 6 days passed, the insects in each cylinder were observed, and mortality of the insects (larvae and adults) was determined according to the following equation. Each compound was tested in that manner for two groups of dishes. Mortality (%)=[number of insect killed/(number of insect killed+number of living insect)]×100

`Cn1nc(Cl)c(C(O)=C(C#N)c2csc(-c3ccccc3)n2)c1Cl` [II-1, 3-(1-methyl-3,5-dichloropyrazol-4-yl)-2-(2-phenylthiazol-4-yl)-3-hydroxyacrylonitrile] showed a mortality at 500 ppm [1] of at least 80%, a mortality at 500 ppm [2] of at least 80% and a mortality at 500 ppm [3] of 100%.
Molecule `Cn1nc(C(F)(F)F)c(C(O)=C(Br)n2ccc(-c3c(F)cccc3F)n2)c1Cl` has a melting point of 123 to 125 °C.
`Cn1nc(Cl)c(C(=O)C(Br)c2ccccc2)c1Cl` (stereo not shown) showed a melting point of 74.5 to 75.5 °C.
Work on `Cn1nc(Cl)c(C(=O)OC(=C(C#N)c2ccc(C(F)(F)F)cc2)c2c(Cl)nn(C)c2Cl)c1Cl` [IV-5, 2-(4-trifluoromethylphenyl)-3-(1-methyl-3,5-dichloropyrazol-4-yl)-3-(1-methyl-3,5-dichloropyrazole-4-carbonyloxy)acrylonitrile] yielded a mortality at 500 ppm [4] of at least 80%.
Molecule `Cn1nc(Cl)c(C(O)=C(C#N)c2coc(C(C)(C)C)n2)c1Cl` [V-40, 2-{2-tert-butyloxazol-4-yl}-3-(3,5-dichloro-1-methyl-pyrazol-4-yl)-3-hydroxyacrylonitrile] has a mortality at 500 ppm [3] of 100% and a mortality at 500 ppm [4] of at least 80%.
With `Cn1nc(Cl)c(C(O)=C(C#N)c2ccc(C(C)(C)C)cc2)c1Cl` [IV-18, 2-(4-tert-butylphenyl)-3-(1-methyl-3,5-dichloropyrazol-4-yl)-3-hydroxyacrylonitrile] the mortality at 500 ppm [4] was at least 80%.
With `COC(=O)OC(=C(C#N)c1ccc(C(C)(C)C)cc1)c1c(Cl)nn(C)c1Cl` [IV-36, 2-(4-tert-butylphenyl)-3-(3,5-dichloro-1-methylpyrazol-4-yl)-3-methoxycarbonyloxyacrylonitrile] the mortality at 500 ppm [4] was at least 80%.
`CCOCOC(=C(C#N)c1coc(C(C)(C)C)n1)c1c(C(F)(F)F)nn(C)c1Cl` [V-44, 2-(2-tert-butyloxazol-4-yl)-3-(5-chloro-1-methyl-3-trifluoromethylpyrazol-4-yl)-3-ethoxymethoxyacrylonitrile] showed a mortality at 500 ppm [4] of at least 80%.
With `Cn1nc(C(F)(F)F)c(C(OC(=O)C(C)(C)C)=C(C#N)c2ccc(C(C)(C)C)cc2)c1Cl` [IV-24, 2-(4-tert-butylphenyl)-3-(1-methyl-3-trifluoromethyl-5-chloropyrazol-4-yl)-3-pivaloyloxyacrylonitrile] the mortality at 500 ppm [4] was at least 80%.
With `Cc1nc(C(F)(F)F)c(C(OC(=O)c2ccccc2)=C(C#N)c2csc(C(C)(C)C)n2)s1` [II-75, 2-(2-tert-butylthiazol-4-yl)-3-(2-methyl-4-trifluoromethylthiazol-5-yl)-3-benzoyloxyacrylonitrile] the mortality at 500 ppm [1] was at least 80%, the mortality at 500 ppm [2] was at least 80% and the mortality at 500 ppm [5] was at least 80%. For the same molecule, the mortality at 500 ppm [4] was at least 80%.
For `Cn1nc(Cl)c(C(O)=C(C#N)n2ccc(-c3c(F)cccc3F)n2)c1Cl` [I-40, 2-{3-(2,6-difluorophenyl)pyrazol-1-yl}-3-(1-methyl-3,5-dichloropyrazol-4-yl)-3-hydroxyacrylonitrile], the mortality at 500 ppm [1] was at least 80%, the mortality at 500 ppm [5] was at least 80% and the mortality at 500 ppm [3] was 100%. For the same molecule, the mortality at 500 ppm [4] was at least 80%.
Work on `Cn1nc(C(F)(F)F)c(C(OC(=O)C(C)(C)C)=C(C#N)c2nc(C(C)(C)C)cs2)c1Cl` [III-6, 3-(1-methyl-3-trifluoromethyl-5-chloropyrazol-4-yl)-2-(4-tert-butylthiazol-2-yl)-3-pivaloyloxyacrylonitrile] yielded a mortality at 500 ppm [1] of at least 80%, a mortality at 500 ppm [2] of at least 80% and a mortality at 500 ppm [5] of at least 80%. For the same molecule, the mortality at 500 ppm [3] was 100% and the mortality at 500 ppm [4] was at least 80%.
